Assay results published in PubChem BioAssay (NCI).
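A five-concentration, 48-hour dose response in 96-well plates underlies each endpoint, interpolated linearly between surrounding concentrations. GI50 is the concentration that inhibits growth by half. TGI: total growth inhibition.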

Legend:
Test in all cases: NCI anticancer screen, dose series, 48 h
[1] = test system: 786-0 renal
[2] = test system: A498 renal
[3] = test system: A549 NSCLC
[4] = test system: ACHN renal
[5] = test system: BT-549 breast
[6] = test system: CAKI-1 renal
[7] = test system: CCRF-CEM leukemia
[8] = test system: COLO 205 colon
[9] = test system: DU-145 prostate
[10] = test system: HCC-2998 colon
[11] = test system: HCT-116 colon
[12] = test system: HCT-15 colon
[13] = test system: HL-60(TB) leukemia
[14] = test system: HOP-62 NSCLC
[15] = test system: HOP-92 NSCLC
[16] = test system: HS 578T breast
[17] = test system: HT29 colon
[18] = test system: IGROV1 ovarian
[19] = test system: K-562 leukemia
[20] = test system: KM12 colon
[21] = test system: LOX IMVI melanoma
[22] = test system: M14 melanoma
[23] = test system: MALME-3M melanoma
[24] = test system: MCF7 breast
[25] = test system: MDA-MB-231 breast
[26] = test system: MDA-MB-435
[27] = test system: MOLT-4 leukemia
[28] = test system: NCI-H226 lung
[29] = test system: NCI-H23 lung
[30] = test system: NCI-H460 lung
[31] = test system: NCI-H522 lung
[32] = test system: NCI/ADR-RES ovarian
[33] = test system: OVCAR-3 ovarian
[34] = test system: OVCAR-4 ovarian
[35] = test system: OVCAR-5 ovarian
[36] = test system: OVCAR-8 ovarian
[37] = test system: PC-3 prostate
[38] = test system: RPMI-8226 leukemia
[39] = test system: RXF 393 renal
[40] = test system: SF-268 CNS
[41] = test system: SF-295 CNS
[42] = test system: SF-539 CNS
[43] = test system: SK-MEL-2 melanoma
[44] = test system: SK-MEL-28 melanoma
[45] = test system: SK-MEL-5 melanoma
[46] = test system: SK-OV-3 ovarian
[47] = test system: SN12C renal
[48] = test system: SNB-19 CNS
[49] = test system: SNB-75 CNS
[50] = test system: SR leukemia
[51] = test system: SW-620 colon
[52] = test system: T-47D breast
[53] = test system: TK-10 renal
[54] = test system: U251 CNS
[55] = test system: UACC-257 melanoma
[56] = test system: UACC-62 melanoma
[57] = test system: UO-31 renal

`COc1cc[nH]c1/C=C1\C(=O)Nc2ccc(F)c(C#C[C@@H](O)[C@@H](N)[C@@H](C)O)c21` gave a GI50 [1] of 708 nM, a TGI [1] of 3.37 µM and a GI50 [2] of 0.397 µM. For the same molecule, the TGI [2] was 0.955 µM, the GI50 [3] was 0.681 µM and the TGI [3] was 3.13 µM. It also gave a GI50 [4] of 323 nM, a TGI [4] of 2.94 µM and a GI50 [5] of 642 nM. The TGI [5] was 1.65 µM, the GI50 [6] was 415 nM and the TGI [6] was 5.73 µM. The GI50 [7] was 709 nM, the TGI [7] was 2.35 µM and the GI50 [8] was 303 nM. The TGI [8] was 743 nM, the GI50 [9] was 529 nM and the TGI [9] was 3.5 µM. The GI50 [10] was 0.727 µM, the TGI [10] was 2.64 µM and the GI50 [11] was 323 nM. It also gave a TGI [11] of 2.89 µM, a GI50 [12] of 839 nM and a TGI [12] of 18.3 µM. For the same molecule, the GI50 [13] was 420 nM, the TGI [13] was 1.55 µM and the GI50 [14] was 0.647 µM. For the same molecule, the TGI [14] was 2 µM, the GI50 [15] was 517 nM and the TGI [15] was 1.96 µM. It also gave a GI50 [16] of 0.381 µM, a TGI [16] of 1.68 µM and a GI50 [17] of 448 nM. It also gave a TGI [17] of 1.49 µM, a GI50 [18] of 0.618 µM and a TGI [18] of 5.24 µM. For the same molecule, the GI50 [19] was 651 nM, the TGI [19] was 3.44 µM and the GI50 [20] was 31.2 nM. For the same molecule, the TGI [20] was 2.19 µM, the GI50 [21] was 516 nM and the TGI [21] was 2500 nM. It also gave a GI50 [22] of 413 nM, a TGI [22] of 1.24 µM and a GI50 [23] of 504 nM. For the same molecule, the TGI [23] was 1.7 µM, the GI50 [24] was 545 nM and the TGI [24] was 4.3 µM. It also gave a GI50 [25] of 485 nM, a TGI [25] of 2.37 µM and a GI50 [26] of 561 nM. The TGI [26] was 2.83 µM, the GI50 [27] was 600 nM and the TGI [27] was 2.06 µM. The GI50 [28] was 526 nM, the TGI [28] was 2540 nM and the GI50 [29] was 649 nM. It also gave a TGI [29] of 3.33 µM, a GI50 [30] of 515 nM and a TGI [30] of 2.77 µM. For the same molecule, the GI50 [31] was 575 nM, the TGI [31] was 1770 nM and the GI50 [32] was 6.65 µM. The TGI [32] was 25 µM, the GI50 [33] was 685 nM and the TGI [33] was 2.26 µM. For the same molecule, the GI50 [34] was 671 nM, the TGI [34] was 6.85 µM and the GI50 [35] was 0.673 µM. It also gave a TGI [35] of 5.14 µM, a GI50 [36] of 843 nM and a TGI [36] of 5.15 µM. It also gave a GI50 [37] of 0.369 µM, a TGI [37] of 1.6 µM and a GI50 [38] of 683 nM. The TGI [38] was 1830 nM, the GI50 [39] was 279 nM and the TGI [39] was 955 nM. For the same molecule, the GI50 [40] was 663 nM, the TGI [40] was 2.42 µM and the GI50 [41] was 0.689 µM. It also gave a TGI [41] of 3.44 µM, a GI50 [42] of 472 nM and a TGI [42] of 1.12 µM. For the same molecule, the GI50 [43] was 390 nM, the TGI [43] was 0.923 µM and the GI50 [44] was 648 nM. The TGI [44] was 2.86 µM, the GI50 [45] was 676 nM and the TGI [45] was 2350 nM. The GI50 [46] was 744 nM, the TGI [46] was 9.65 µM and the GI50 [47] was 510 nM. For the same molecule, the TGI [47] was 8.38 µM, the GI50 [48] was 0.909 µM and the TGI [48] was 5.51 µM. For the same molecule, the GI50 [49] was 112 nM, the TGI [49] was 0.75 µM and the GI50 [50] was 114 nM. It also gave a TGI [50] of 1950 nM, a GI50 [51] of 559 nM and a TGI [51] of 3.07 µM. For the same molecule, the GI50 [52] was 993 nM, the TGI [52] was 6.07 µM and the GI50 [53] was 258 nM. For the same molecule, the TGI [53] was 1.86 µM, the GI50 [54] was 0.445 µM and the TGI [54] was 2.61 µM. For the same molecule, the GI50 [55] was 628 nM, the TGI [55] was 2.17 µM and the GI50 [56] was 277 nM. The TGI [56] was 853 nM, the GI50 [57] was 745 nM and the TGI [57] was 2.7 µM.

`COc1cc2c(cc1OC)C(=O)C(Br)CC2` (configuration not stated) was tested, and the GI50 [1] was 4010 nM, the TGI [1] was 13.4 µM and the GI50 [2] was 11.3 µM. It also gave a TGI [2] of 23.6 µM, a GI50 [3] of 11.4 µM and a TGI [3] of 27.7 µM. For the same molecule, the GI50 [4] was 1860 nM, the TGI [4] was 3.7 µM and the GI50 [5] was 2150 nM. The TGI [5] was 5.85 µM, the GI50 [6] was 3560 nM and the TGI [6] was 12.4 µM. The GI50 [7] was 2820 nM, the TGI [7] was 11.9 µM and the GI50 [8] was 2030 nM. The TGI [8] was 3720 nM, the GI50 [9] was 4610 nM and the TGI [9] was 16.2 µM. For the same molecule, the GI50 [10] was 11.5 µM, the TGI [10] was 24.5 µM and the GI50 [11] was 1740 nM. It also gave a TGI [11] of 3.72 µM, a GI50 [12] of 2330 nM and a TGI [12] of 7.37 µM. For the same molecule, the GI50 [13] was 4910 nM, the TGI [13] was 28.9 µM and the GI50 [14] was 6.09 µM. For the same molecule, the TGI [14] was 18.5 µM, the GI50 [15] was 2630 nM and the TGI [15] was 12.2 µM. The GI50 [16] was 7.48 µM, the TGI [16] was 37.4 µM and the GI50 [17] was 3720 nM. The TGI [17] was 12.1 µM, the GI50 [18] was 6.23 µM and the TGI [18] was 19.7 µM. For the same molecule, the GI50 [19] was 3960 nM, the TGI [19] was greater than 100 µM and the GI50 [20] was 5770 nM. It also gave a TGI [20] of 19.3 µM, a GI50 [21] of 1740 nM and a TGI [21] of 3340 nM. The GI50 [22] was 2720 nM, the TGI [22] was 7.1 µM and the GI50 [23] was 3310 nM. For the same molecule, the TGI [23] was 8.18 µM, the GI50 [24] was 3130 nM and the TGI [24] was 13.7 µM. The GI50 [25] was 3560 nM, the TGI [25] was 13.4 µM and the GI50 [26] was 2870 nM. It also gave a TGI [26] of 10.4 µM, a GI50 [27] of 3220 nM and a TGI [27] of 15 µM. For the same molecule, the GI50 [29] was 2890 nM, the TGI [29] was 10.9 µM and the GI50 [30] was 4270 nM. It also gave a TGI [30] of 16.9 µM, a GI50 [31] of 1570 nM and a TGI [31] of 3170 nM. The GI50 [32] was 4.5 µM, the TGI [32] was 37.3 µM and the GI50 [33] was 2500 nM. The TGI [33] was 6.88 µM, the GI50 [35] was 5.47 µM and the TGI [35] was 18.2 µM. The GI50 [36] was 3280 nM, the TGI [36] was 11.7 µM and the GI50 [37] was 8.8 µM. It also gave a TGI [37] of 23.1 µM, a GI50 [39] of 1550 nM and a TGI [39] of 3010 nM. For the same molecule, the GI50 [40] was 4360 nM, the TGI [40] was 15.7 µM and the GI50 [41] was 14.3 µM. It also gave a TGI [41] of 28.4 µM, a GI50 [42] of 3120 nM and a TGI [42] of 11.2 µM. The GI50 [43] was 3600 nM, the TGI [43] was 9.98 µM and the GI50 [44] was 4850 nM. The TGI [44] was 16.3 µM, the GI50 [45] was 1700 nM and the TGI [45] was 3190 nM. It also gave a GI50 [46] of 4550 nM, a TGI [46] of 13.7 µM and a GI50 [47] of 3490 nM. The TGI [47] was 12.8 µM, the GI50 [48] was 8.96 µM and the TGI [48] was 21.3 µM. The GI50 [49] was 5270 nM, the TGI [49] was 18.9 µM and the GI50 [50] was 3490 nM. It also gave a TGI [50] greater than 100000 nM, a GI50 [51] of 2710 nM and a TGI [51] of 6.39 µM. For the same molecule, the GI50 [52] was 2250 nM, the TGI [52] was 5.06 µM and the GI50 [53] was 5170 nM. It also gave a TGI [53] of 17.8 µM, a GI50 [54] of 12.8 µM and a TGI [54] of 25.7 µM. It also gave a GI50 [55] of 3020 nM, a TGI [55] of 11.3 µM and a GI50 [56] of 2010 nM. It also gave a TGI [56] of 4550 nM, a GI50 [57] of 2380 nM and a TGI [57] of 6.77 µM.
